Series [1] can be described thus: Stability of compound in PBS buffer assessed as compound degradation measured after 2 days at 37 degC by HPLC analysis. Type of series: physicochemical. As to conditions: time 2 day, read-out: Drug degradation.
Series [2] is described as follows: Stability of compound in PBS buffer measured after 1 day at 37 degC by HPLC analysis. Type of series: physicochemical. As to conditions: 24 h.
A short description of series [3]: Stability of compound in PBS buffer measured after 1 day at room temperature by HPLC analysis. It is filed as physicochemical. As to conditions: 24 h.
The target of a further series is T1, Alpha-cobratoxin (Naja kaouthia, UniProt P01391).
T1 sequence (P01391 whole entry): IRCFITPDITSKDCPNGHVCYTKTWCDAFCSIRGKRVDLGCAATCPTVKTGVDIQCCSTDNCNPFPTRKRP
As to the kind of experiment: Displacement of TAMRA-HAKTYMWDGWYMPTSH-NH2 from Naja kaouthia alpha-cobratoxin by fluorescence polarization assay. (In general: In fluorescence polarisation assays a small probe gives low polarisation when free and higher when bound to something large.)

Series [4] in a line: Stability of compound in PBS buffer assessed as compound degradation measured after 9 days at room temperature by HPLC analysis. Type of series: physicochemical. As to conditions: time 9 day, read-out: Drug degradation.

This note sets out measurements from ChEMBL document CHEMBL4699620, “Peptide Inhibitors of the α-Cobratoxin-Nicotinic Acetylcholine Receptor Interaction” (J Med Chem, 2020).

Where a SMILES comes first, the peptide text is derived from it. [ ]: non-standard residue; d: D form. PEG6 = NCCOCCOCCOCCOCCOCCOCCC(=O)O

One may read the Ki as a measure of affinity in units of concentration, obtained from inhibition or displacement. For the molecule `CSCC[C@H](NC(=O)[C@H](Cc1ccc(O)cc1)NC(=O)[C@H](Cc1c[nH]c2ccccc12)NC(=O)CNC(=O)[C@H](CC(=O)O)NC(=O)[C@H](Cc1c[nH]c2ccccc12)NC(=O)[C@H](CCSC)NC(=O)[C@H](Cc1ccc(O)cc1)NC(=O)CCOCCOCCOCCOCCOCCOCCN)C(N)=O` (H-[PEG6]YMWDGWYM-NH2), in series [1], the degraded at 48 h came out at 7%. Besides, the Stabilty result in series [2] and in series [3] was “Stable” throughout. Moreover, the inhibition constant (Ki) on Alpha-cobratoxin was found to be 26 µM. The degraded at 216 h in series [4] is 7%.

For orientation: IC50 means the concentration that inhibits the measured activity by half. Low values mean greater potency in that assay, high ones weaker potency in that assay. Ac-HAKTYMWDGWYMPTSH-NH2: the Stabilty result in series [2] is “Stable”. In addition, in series [3], the Stabilty entry is “Stable”. On Alpha-cobratoxin, the IC50 stood at 29 µM and the affinity, expressed as Ki, was 2 µM.
